Assay [1] can be described thus: growth suppression of PTEN-null colon cells, dose response, cell-based, HCT116 PTEN knockout (AID 1047).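 Further: HCT116 colon tumor cells with PTEN knocked out; cells exposed to compound for 60 hours before readout; potency for loss of cell viability measured by luminescence.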 Format: functional.
In assay [2] the target is T1, High affinity choline transporter 1 (Homo sapiens, UniProt Q9GZV3).
T1 sequence (Q9GZV3 whole entry): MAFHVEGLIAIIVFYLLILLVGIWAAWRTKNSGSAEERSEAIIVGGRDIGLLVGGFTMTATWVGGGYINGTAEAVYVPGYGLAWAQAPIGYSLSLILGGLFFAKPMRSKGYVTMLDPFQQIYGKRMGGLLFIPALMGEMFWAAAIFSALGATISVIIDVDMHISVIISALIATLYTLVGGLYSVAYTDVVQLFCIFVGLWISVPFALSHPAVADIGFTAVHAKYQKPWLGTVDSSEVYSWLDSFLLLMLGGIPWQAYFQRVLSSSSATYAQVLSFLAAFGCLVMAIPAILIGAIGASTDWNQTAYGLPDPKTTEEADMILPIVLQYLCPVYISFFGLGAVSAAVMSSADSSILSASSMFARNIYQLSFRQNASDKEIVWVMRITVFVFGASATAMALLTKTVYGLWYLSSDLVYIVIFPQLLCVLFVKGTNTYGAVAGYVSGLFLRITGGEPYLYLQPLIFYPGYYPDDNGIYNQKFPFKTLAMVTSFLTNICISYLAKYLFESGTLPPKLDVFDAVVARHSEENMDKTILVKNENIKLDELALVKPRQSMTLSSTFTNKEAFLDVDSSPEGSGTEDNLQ
The assay can be described thus: CHT inhibitors, dose response, cell-based, 5-point CRC, membrane potential dye (AID 504840). Format: functional.

Assay [3] in a line: growth suppression of beta-catenin-knockout colon cells, dose response, cell-based, HCT116, human colon tumor (AID 1045).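 Further: HCT116 colon tumor cells with beta catenin knocked out; cells exposed to compound for 60 hours.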 Type of assay: functional.
A short description of assay [4]: P. falciparum 3D7-ScDHODH growth inhibitors, dose response, SYBR Green, dry powder samples (AID 1159570).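 Further: parasite growth measured after 72 hours of compound exposure.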 Type of assay: functional, cell-based.
The nature of assay [5]: P. falciparum ATP4 D1247Y mutant growth inhibitors, dose response, NITD609-resistant line, SYBR Green, dry powder (AID 1159571).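 Further: parasites synchronized at ring stage by sorbitol before testing.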 Type of assay: functional, cell-based.
Assay [6] in a line: P. falciparum Dd2 growth inhibitors, dose response, SYBR Green, dry powder samples (AID 1159566).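 Further: potency for growth inhibition with lower SYBR green DNA signal.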 Format: functional, cell-based.
The nature of assay [7]: P. falciparum Dd2 growth inhibitors, dose response, SYBR Green, cherry-picked samples (AID 1159567). Type of assay: functional, cell-based.
Assay [8] in a line: THP-1 cell cytotoxicity, dose response, cytotoxicity control for Vif-APOBEC3G degradation inhibitor project, THP-1 cells (AID 1117359). As to conditions: Human immunodeficiency virus 1, THP-1. Type of assay: functional.
Another assay concerns the target T2, Coagulation factor XII (Homo sapiens, UniProt P00748).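 Further: activated factor XIIa alpha cleaving a fluorogenic AMC peptide substrate; inhibitor potency from loss of enzyme activity.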
T2 sequence (P00748 whole entry): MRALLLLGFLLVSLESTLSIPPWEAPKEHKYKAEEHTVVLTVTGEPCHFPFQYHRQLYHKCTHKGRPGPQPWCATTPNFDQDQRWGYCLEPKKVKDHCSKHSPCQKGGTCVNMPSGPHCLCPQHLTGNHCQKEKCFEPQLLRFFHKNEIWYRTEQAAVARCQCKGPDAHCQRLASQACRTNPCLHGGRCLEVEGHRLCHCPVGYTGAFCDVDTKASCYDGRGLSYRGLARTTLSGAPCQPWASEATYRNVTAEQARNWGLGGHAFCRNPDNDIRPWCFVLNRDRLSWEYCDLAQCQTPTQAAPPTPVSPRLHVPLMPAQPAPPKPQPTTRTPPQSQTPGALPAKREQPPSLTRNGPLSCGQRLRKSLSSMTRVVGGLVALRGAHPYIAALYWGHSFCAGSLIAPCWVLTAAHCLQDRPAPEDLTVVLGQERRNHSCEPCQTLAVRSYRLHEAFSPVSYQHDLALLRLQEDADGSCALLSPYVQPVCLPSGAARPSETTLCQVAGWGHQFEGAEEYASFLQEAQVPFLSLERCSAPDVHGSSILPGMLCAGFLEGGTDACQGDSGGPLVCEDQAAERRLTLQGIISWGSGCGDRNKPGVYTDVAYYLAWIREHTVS
Type of assay: functional.

Assay [9] addresses Glyceraldehyde-3-phosphate dehydrogenase (Homo sapiens, UniProt P04406).
The target in assay [10] is T3, Alkaline phosphatase, tissue-nonspecific isozyme (Homo sapiens, UniProt P05186).
T3 sequence (P05186 whole entry): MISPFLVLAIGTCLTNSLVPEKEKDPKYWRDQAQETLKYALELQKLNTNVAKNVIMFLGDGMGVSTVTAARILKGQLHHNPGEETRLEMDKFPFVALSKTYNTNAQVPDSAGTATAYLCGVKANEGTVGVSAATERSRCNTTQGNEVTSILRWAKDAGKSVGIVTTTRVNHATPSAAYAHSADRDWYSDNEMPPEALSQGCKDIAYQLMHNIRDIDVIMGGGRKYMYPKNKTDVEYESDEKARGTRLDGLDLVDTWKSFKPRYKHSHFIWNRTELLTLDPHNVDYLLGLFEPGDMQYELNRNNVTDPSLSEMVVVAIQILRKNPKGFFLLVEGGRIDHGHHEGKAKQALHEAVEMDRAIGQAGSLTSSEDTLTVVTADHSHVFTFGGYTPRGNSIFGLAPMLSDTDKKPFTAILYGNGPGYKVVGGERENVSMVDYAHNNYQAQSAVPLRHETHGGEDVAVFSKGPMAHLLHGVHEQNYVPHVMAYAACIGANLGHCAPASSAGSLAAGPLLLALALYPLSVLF
The assay can be described thus: human TNAP enzyme inhibitors, SAR follow-up, biochemical, luminescent, dose response (AID 1056).

A short description of assay [11]: HEK293 cell cytotoxicity, dose response, cytotoxicity control, plate reader, cherry-picked samples (AID 743446). Type of assay: functional, cell-based.
The nature of assay [12]: A549 cell cytotoxicity, dose response, cytotoxicity control, plate reader, cherry-pick, antagonist series (AID 743412). Type of assay: functional, cell-based.
The test system of assay [13] is BJ. As to the kind of experiment: cytotoxicity toward BJ-TERT-LT-ST fibroblasts, dose response, cell-based, RAS-independent, luminescence (AID 1935).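 Further: BJ fibroblasts immortalized with TERT plus LT and ST oncogenes.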 Format: functional. As to conditions: Homo sapiens.
The nature of assay [14]: HepG2 cell cytotoxicity, dose response, cytotoxicity control, plate reader, cherry-pick, antagonist series (AID 743416). Type of assay: functional, cell-based.
Assay [15] in a line: Luminescence Cell-Based Dose Response HTS to Identify Inhibitors of 5'UTR Stem-Loop Driven Prion Protein mRNA Translation in H4 Neuroglioblastoma Cells. [Related pubchem assays: 1827 (Project Summary), 1813 (Primary HTS)]. Type of assay: functional.
Assay [16] can be described thus: LGR2 antagonists, dose response, cell-based, HEK293, CRE-luciferase reporter, cherry pick, set 2 (AID 743343).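 Further: transfected cells were stimulated with diluted bursicon conditioned medium after compound addition.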 Type of assay: functional.
Assay [17] can be described thus: cytotoxicity toward DRD oncogenic fibroblasts, dose response, cell-based, non-viral oncogenic, luminescence (AID 1934). Format: functional. As to conditions: Homo sapiens.
Assay [18] concerns BJ. As to the kind of experiment: cells. Format: functional, cell-based. As to conditions: Homo sapiens.
Assay [19] can be described thus: MC4R antagonists, dose response, counter-screen for LGR2 antagonist project, cell-based, plate reader, cherry pick (AID 743444).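 Further: transfected HEK 293 cells stimulated with alpha-MSH peptide; potency of inhibitors of the alpha-MSH evoked signal.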 Type of assay: functional. In general terms: Counterscreens check selectivity or assay interference.
Assay [20] deals with Luciferin 4-monooxygenase (Photinus pyralis, UniProt P08659). As to the kind of experiment: firefly luciferase enzyme inhibitors, dose response, biochemical, luminescence (AID 1891).
The nature of assay [21]: Luminescence Cell-Based Dose Confirmation HTS to Identify Inhibitors of Platelet Dense Granule Release. [Related pubchem assays: 1663 (Primary HTS), 1678 (Summary of Project)]. Type of assay: functional.
Assay [22] in a line: inhibitors of SNCA 5'UTR-driven reporter translation, confirmation, H4 neuroglioma cells, luminescence (AID 1988). Type of assay: functional, cell-based.
In assay [23] the test system is BJ. As to the kind of experiment: cytotoxicity toward BJ-TERT fibroblasts, dose response, cell-based, RAS-independent, luminescence (AID 1933). Type of assay: functional. As to conditions: Homo sapiens.

The source of these data is ChEMBL document CHEMBL1201862, “PubChem BioAssay data set” (2004).

Calls of active or inactive are those of the source.

Chain of Glyceraldehyde-3-phosphate dehydrogenase (P04406 whole entry): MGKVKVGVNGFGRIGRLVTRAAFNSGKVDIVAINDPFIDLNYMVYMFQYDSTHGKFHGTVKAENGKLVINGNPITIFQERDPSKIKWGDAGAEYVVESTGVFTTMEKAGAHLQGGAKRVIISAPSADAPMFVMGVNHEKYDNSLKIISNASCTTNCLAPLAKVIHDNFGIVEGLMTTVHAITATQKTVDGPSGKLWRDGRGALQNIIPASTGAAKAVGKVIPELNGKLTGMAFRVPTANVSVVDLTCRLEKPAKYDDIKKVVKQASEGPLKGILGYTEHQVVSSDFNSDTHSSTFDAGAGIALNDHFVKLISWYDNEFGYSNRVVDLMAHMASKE
Chain of Luciferin 4-monooxygenase (P08659 whole entry): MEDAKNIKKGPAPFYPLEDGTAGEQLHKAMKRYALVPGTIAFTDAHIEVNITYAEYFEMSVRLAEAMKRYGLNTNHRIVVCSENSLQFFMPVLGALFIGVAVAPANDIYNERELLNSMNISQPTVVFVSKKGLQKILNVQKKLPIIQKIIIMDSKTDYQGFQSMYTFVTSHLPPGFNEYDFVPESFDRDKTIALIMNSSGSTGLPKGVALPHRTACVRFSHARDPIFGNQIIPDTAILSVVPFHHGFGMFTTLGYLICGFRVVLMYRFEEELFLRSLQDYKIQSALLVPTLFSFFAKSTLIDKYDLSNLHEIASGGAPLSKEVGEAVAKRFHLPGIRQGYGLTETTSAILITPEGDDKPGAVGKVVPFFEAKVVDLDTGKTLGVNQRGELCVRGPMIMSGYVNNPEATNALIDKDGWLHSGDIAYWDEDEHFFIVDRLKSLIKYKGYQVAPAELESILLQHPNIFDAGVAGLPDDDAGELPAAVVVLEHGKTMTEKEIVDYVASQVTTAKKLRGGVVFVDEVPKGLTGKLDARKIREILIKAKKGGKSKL

By EC50 is commonly meant the concentration giving half of the maximal effect. By IC50 is commonly meant the concentration that inhibits the measured activity by half. Consider `CC1CCCCC1N=C(S)Nc1ccc(SC(F)F)cc1` (stereo not drawn), for which the EC50 in assay [1] was 17.5 µM (active); in assay [3], 19 µM (active). Further, the IC50 in assay [2] is 7.63 µM (active).
For orientation: AC50 means the midpoint of the concentration-response curve, whichever way the signal moves. Consider `COc1ccc(NC(=O)N(C)C[C@H]2Oc3c(NC(=O)Nc4ccccc4)cccc3C(=O)N([C@@H](C)CO)C[C@H]2C)cc1`, for which the AC50 was 0.261 µM (active) in assay [4], 0.2 µM (active) in assay [5], 0.167 µM (active) in assay [6] and < 0.3 µM (active) in assay [7].
Regarding `CCN(CC)CCC(c1ccc2c(c1)OCO2)c1c(OC)cc(OC)c2c(-c3ccccc3)cc(=O)oc12` (stereo not drawn), the concentration for half-maximal inhibition (IC50) in assay [2] was 18.2 µM (active).
Broadly, the CC50 is the concentration that lowers cell viability or growth by half. Regarding `CCOC(=O)Nc1cc(C)c(Cl)cc1OC`, the CC50 in assay [8] was > 40 µM (active).
Regarding `O=C(NCCN1CCc2ccccc2C1)C1CC(=O)N(C2CCCC2)C1` (stereo not drawn), at Coagulation factor XII, the IC50 is > 50 µM (inactive).
`COc1ccc(OCCOC(=O)c2cc(S(=O)(=O)N3CCOCC3)c(Cl)cc2Cl)cc1`: in [8], the CC50 was 23.9 µM (active).
Consider `COc1ccc(-c2csc3ncnc(N4CCN(CCO)CC4)c23)cc1`, for which the IC50 in assay [2] was 13.8 µM (active).
For the compound `COC(=O)c1ccc(OC)c(S(=O)(=O)Nc2cnc3ccccc3c2)c1`, the IC50 in assay [9] was > 10 µM (inconclusive); in assay [10] it was > 10 µM (inactive).
Consider `Cc1nnc(NC(=O)c2c(F)c(F)c(F)c(F)c2F)s1`, for which the IC50 on Coagulation factor XII was > 50 µM (inactive).
Regarding `COc1ccc(Br)cc1S(=O)(=O)Nc1ccon1`, the IC50 in [9] was > 100 µM (not active); in [10], > 100 µM (inactive).
Turning to `C[C@@H]1CN([C@@H](C)CO)C(=O)c2cccc(NC(=O)Nc3ccccc3)c2O[C@@H]1CN(C)C(=O)Nc1ccccc1`, the AC50 was 1.06 µM (active) in assay [4], 0.216 µM (active) in assay [5], 0.204 µM (active) in [6] and 0.37 µM (active) in [7].
`NNC(=O)CN1C(=O)CN=C(c2ccccc2)c2cc(Br)ccc21`: the IC50 at Coagulation factor XII was > 50 µM (inactive).
Same read-out and setting: for `CN(C)/C=C1\C=C(c2ccccc2)OC1=O` the value was > 50 µM (inactive); for `Cc1ccc(S(=O)(=O)N2CCN(Cc3cc(C(C)C)ccc3O)CC2)cc1`, > 50 µM (inactive).
Regarding `Cc1cccc(-c2nc3cc(NC(=O)C4CCCO4)ccc3o2)c1` (stereo not drawn), the AC50 in assay [11] is 26.9 µM (active); in [12], 43.3 µM (active); in [14] it was 33.8 µM (active); in [16], 9.84 µM (active); in assay [19], 6.37 µM (active). The EC50 is > 150 µM (not active) in the assay with BJ [13]; 9.83 µM (active) in assay [15]; 17 µM (active) in [17]; 19.8 µM (active) in the assay with BJ [18]; 1.51 µM (active) in assay [20]; 1.57 µM (active) in [21]. Also, the EC50 in [22] is 9.78 µM (active); in the assay with BJ [23], 23.3 µM (active).
Regarding `CC(NC(=O)c1cccc(S(=O)(=O)N2CCN(C)CC2)c1)C1CC2CCC1C2` (stereo not drawn), the concentration for half-maximal inhibition (IC50) in [2] was 13.2 µM (active).
